Data set [1] has as its system bladder cancer cell lines. Description: In vitro drug sensitivity assay / crystal violet staining, cell line panel. It counts as cell-based. The following applies: most bladder cancer cell lines. Here is the method: (§1) Cells were seeded in either 96-well (5,000 cells/well) or 24-well (20,000 cells/well) plates. The following day, irofulven and cisplatin stock solutions were serially diluted in media and added to cells. After 48 to 72 hours, media was removed and CellTiter-Glo® reagent (Promega; Madison, WI) was added. Plates were scanned using a luminescence microplate reader (BioTek). Survival at each drug concentration was plotted as a percentage of survival in drug-free media with error bars representing the standard deviation of at least three experiments.
(§2) For crystal violet imaging experiments, cells were seeded in 6-well plates (100,000-200,000 cells/well) with 15 nM siRNA transfection mixture (as detailed above). At 24 hours, fresh media containing irofulven or PBS was added and the cells were incubated for an additional 72 hours. Cells were then fixed in formalin solution for 30 minutes and stained with crystal violet prepared in equal volumes of methanol and water. Excess crystal violet was removed by washing with PBS, and plates were then dried and imaged.

The test system of data set [2] is KU19-19 bladder cancer cell line (NER-proficient). Description: In vitro drug sensitivity assay (CellTiter-Glo). As to conditions: NER-proficient KU19-19; 48 to 72 hours. It counts as cell-based. The protocol: as §1
Data set [3] deals with KE1 bladder cancer cell line (ERCC2-mutated derivative of KU19-19, NER-deficient). Description: In vitro drug sensitivity assay (CellTiter-Glo). It counts as cell-based. As to conditions: NER-deficient KE1, compared with isogenic KU19-19; 48 to 72 hours. The source says:
Bladder cancer cell lines were purchased from ATCC. The KE1 bladder cancer cell line is a derivative of KU19-19 in which an ERCC2 T484 mutation has been introduced by CRISPR/Cas9 gene editing as previously described (6). The MDA-MB-468 breast cancer cell line and its ERCC4-complemented derivative have been previously described (35). Small interfering RNAs (siRNAs) targeting specific NER genes as well as a non-targeting siRNA (siNTC) were purchased from Integrated DNA Technologies Inc. (Coralville, IA, USA; see Table 9 for sequences). Cells were seeded in 6-well plates and grown to 50% confluency. A transfection mixture containing siRNA diluted to a final concentration of 30 nM in Opti-MEM media containing Lipofectamine 3000 (Life Technologies; Carlsbad, CA) was then added to cells. After 48 hours, cells were trypsinized and re-aliquoted to separate wells and transfected with 15 nM siRNA for 24 hours immediately prior to viability assays performed as described below. […]
Cells were seeded in either 96-well (5,000 cells/well) or 24-well (20,000 cells/well) plates. […] Plates were scanned using a luminescence microplate reader (BioTek). […]
(ATP-based viability assays read luminescence as a measure of living cells.)

Data set [4] has as its system variety of tumor types, biomarker-unselected populations. As to conditions: single agent, Phase I/II clinical trials; cited from earlier work.
Data set [5] relates to KU19-19 xenografts (NER-proficient). Put plainly: Xenograft study. As to conditions: 1 mg/kg irofulven. It counts as in vivo, mice. The protocol: (§3) Six week old female athymic nude mice, NU/J (Stock No: 002019) were purchased from Jackson Laboratory (Bar Harbor, ME) and housed at the Dana-Farber Cancer Institute Animal Resources Facility. All animal experiments were performed in accordance with an IACUC-approved protocol. At 7-10 weeks of age, mice were anesthetized with isoflurane and subcutaneously injected on the left flank with 3 million KE1 or 1 million KU19-19 cells mixed 1:1 with Matrigel (BD Biosciences; Mississauga, ON) in PBS. Tumor size was measured with a digital caliper twice weekly and calculated using the formula: (L×W^2)×½. Drug treatments were administered when the average tumor volume reached a minimum of 100 mm^3. Irofulven was prepared in PBS to a stock concentration of 200 μg/ml and was delivered intraperitoneally (IP) twice weekly at doses of 250 μg/kg, 500 μg/kg or 1 mg/kg for a total of 5 injections or until the tumor reached a pre-specified protocol endpoint. Control mice were injected with PBS alone. At the end of the experiment, mice were sacrificed and tumors were excised for tumor weight measurements and imaging.
(§4) Six week old female athymic nude mice, NU/J (Stock No: 002019) were purchased from Jackson Laboratory (Bar Harbor, ME) and housed at the Dana-Farber Cancer Institute Animal Resources Facility. All animal experiments were performed in accordance with an IACUC-approved protocol. At 7-10 weeks of age, mice were anesthetized with isoflurane and subcutaneously injected on the left flank with 3 million KE1 or 1 million KU19-19 cells mixed 1:1 with Matrigel (BD Biosciences; Mississauga, ON) in PBS. Tumor size was measured with a digital caliper twice weekly and calculated using the formula:
(§5) [formula] Drug treatments were administered when the average tumor volume reached a minimum of 100 mm^3. Irofulven was prepared in PBS to a stock concentration of 200 μg/ml and was delivered intraperitoneally (IP) twice weekly at doses of 250 μg/kg, 500 μg/kg or 1 mg/kg for a total of 5 injections or until the tumor reached a pre-specified protocol endpoint. Control mice were injected with PBS alone. At the end of the experiment, mice were sacrificed and tumors were excised for tumor weight measurements and imaging.

Data set [6] relates to KE1 xenografts (NER-deficient). Put plainly: Xenograft study. It counts as in vivo, mice. Here is the method: as §3, §4, §5
Data set [7] relates to SW1710 bladder cancer cell line. Put plainly: In vitro drug sensitivity assay / crystal violet staining. The following applies: SW1710 compared with other bladder cancer cell lines. It counts as cell-based. The protocol: as §1, §2

“Also recorded” adds a separate entry of the source.

For the compound `CC1=C(CO)C2=C(C)C3(CC3)[C@@](C)(O)C(=O)C2=C1` [irofulven], the irofulven sensitivity entry in data set [1] was “resistant; also recorded: minimal sensitivity”; in data set [7], “much higher sensitivity”. Besides, the “drug sensitivity (survival as percentage of drug-free media)” value in data set [2] is given as “minimal sensitivity”; in data set [3], “significantly more sensitive; also recorded: highly sensitive; also recorded: increased sensitivity”. In addition, the tolerability result in data set [4] was “well-tolerated”. Moreover, the tumor response result in data set [5] is “no response; also recorded: did not show response”. Further, in data set [6] (250 μg/kg, 500 μg/kg or 1 mg/kg IP twice weekly), the tumor dose response result is on record as “strong irofulven dose response”. The “tumor response (tumor volume)” value in data set [6] (1 mg/kg IP twice weekly, total of five doses) is reported as “near complete tumor regression”. In data set [6] (irofulven-treated vs untreated mice), the xenograft weights result is listed as “significantly lower”.

(Values after US12691143B2, “Method for treating cancer” (priority 2020, dated 2026).)
